The structures appear in SMILES notation. Some results are limits rather than exact numbers.

As usually defined, the EC50 is the concentration giving half of the maximal effect. The low end stands for an effect from little substance, the high end for a need for much substance.

In assay [1] the test system is Influenza A virus. Briefly: microbe, parasite or virus in culture. Conditions: A/Berlin/55/08(H1N1), MDCK, 48 h.
The subject of assay [2] is Influenza A virus. As to conditions: mdck.

On to `CCC(CC)O[C@@H]1C=C(C(=O)O)C[C@H](N)[C@H]1NC(C)=O` [OSELTAMIVIR CARBOXYLATE], for which the EC50 in the assay with Influenza A virus [1] is greater than 100 µM.
Same read-out and setting: the result for `CCC(CC)O[C@@H]1C=C(C(=O)O)C[C@H](NC(=N)N)[C@H]1NC(C)=O` reads 3.31 µM.
As for `CC(=O)N[C@H]1[C@H]([C@H](O)[C@H](O)CO)OC(C(=O)O)=C[C@@H]1NC(=N)N` [ZANAMIVIR], the EC50 in the assay with Influenza A virus [2] was 1.22 µM.
Consider `CCC(CC)O[C@@H]1C=C(C(=O)O)C[C@H](NC(C)=N)[C@H]1NC(C)=O`, for which the EC50 in the assay with Influenza A virus [1] is 4.82 µM.

These data come from ChEMBL document CHEMBL3120142 (J Med Chem, 2014).
